Laboratory results taken from US11407736B2 (priority 2019, dated 2022).
Where two headings read alike, the source gives them in different places.

How the values were obtained:
RIPK1 = RIPK1 (Homo sapiens (Human), UniProt Q13546); assay: RIPK1 ADP-Glo biochemical kinase assay; conditions: read-out: RIPK1 ADP-Glo Kinase (IC50)
Procedure: The final reaction volume was 5.0ul.
Adding 5 μl of ADP-Glo™ terminated the reaction.

L929 cells = assay: L929 cell necroptosis assay (TNFa + zVAD, CellTiter-Glo); format: cell-based, murine; conditions: Mus musculus
Procedure, shortened: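 Murine L929 cells, plated 18 h beforehand at 10K cells/well in RPMI 1640 with 10% FBS, were switched to medium containing 40 uM zVAD-fmk and given compound from 4-fold serial dilutions. Viability after 18 h of TNFa stimulation at 37° C was read by CellTiter-Glo luminescence.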

U937 cells = assay: U937 cell necroptosis assay (TNFa + zVAD, CellTiter-Glo); format: cell-based, human; conditions: Homo sapiens
Procedure, shortened: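 Human U937 and murine L929 cells in RPMI 1640/10% FBS were pre-incubated 1 h at 37 °C with serially diluted compound plus zVAD-fmk (U937 plated with 60 uM, L929 medium with 40 uM), then stimulated with 2 ng/mL TNFa (final). Viability read by CellTiter-Glo luminescence after 18 h.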

[1] = L929, L929 cells, TNFa + zVAD, read-out: L929-CTG-recovery, L929, TNFa + zVAD (IC50)
[2] = U-937, U937 cells, TNFa + zVAD, read-out: U937 Zvad TNF CTG Recovery, U937, TNFa + zVAD (IC50)
[3] = L929, read-out: L929-CTG-recovery, L929, TNFa + zVAD (IC50), L929 cells, TNFa + zVAD
[4] = U-937, read-out: U937 Zvad TNF CTG Recovery, U937, TNFa + zVAD (IC50), U937 cells, TNFa + zVAD

Chain of RIPK1 (Q13546 whole entry, species assumed): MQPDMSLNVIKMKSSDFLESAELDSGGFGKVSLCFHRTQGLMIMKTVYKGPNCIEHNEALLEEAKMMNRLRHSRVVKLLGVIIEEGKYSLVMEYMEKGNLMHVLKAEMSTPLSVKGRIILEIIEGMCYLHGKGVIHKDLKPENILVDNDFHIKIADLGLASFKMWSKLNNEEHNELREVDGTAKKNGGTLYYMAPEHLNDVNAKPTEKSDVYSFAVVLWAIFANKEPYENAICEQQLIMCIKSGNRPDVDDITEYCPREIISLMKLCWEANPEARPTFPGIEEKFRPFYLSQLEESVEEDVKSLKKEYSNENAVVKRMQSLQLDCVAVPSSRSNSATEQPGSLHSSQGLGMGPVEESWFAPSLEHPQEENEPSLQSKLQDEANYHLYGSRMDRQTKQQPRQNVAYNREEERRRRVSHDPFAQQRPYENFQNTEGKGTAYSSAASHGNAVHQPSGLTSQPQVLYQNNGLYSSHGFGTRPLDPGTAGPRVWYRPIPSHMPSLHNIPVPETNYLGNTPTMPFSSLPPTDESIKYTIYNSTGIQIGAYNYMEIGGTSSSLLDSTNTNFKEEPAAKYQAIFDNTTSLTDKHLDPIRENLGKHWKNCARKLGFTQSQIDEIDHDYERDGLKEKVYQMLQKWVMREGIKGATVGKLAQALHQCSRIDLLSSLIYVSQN

| SMILES | IC50 (RIPK1) [nM] | IC50 (L929 cells; [1]) [nM] | IC50 (U937 cells; [2]) [nM] | IC50 (L929 cells; [3]) [nM] | IC50 (U937 cells; [4]) [nM] | IC50 (L929 cells; L929 cells, TNFa + zVAD, read-out: L929-CTG-recovery, L929, TNFa + zVAD (IC50)) [nM] |
| --- | --- | --- | --- | --- | --- | --- |
| CN1C(=O)[C@@H](NC(=O)c2cc(Oc3ccccc3)ccn2)COc2ccc(C#CC3(O)CNC3)cc21 [Compound I-136, (S)—N-(7-((3-hydroxyazetidin-3-yl)ethynyl)-5-methyl-4-oxo-2,3,4,5-tetrahydrobenzo[b][1,4]oxazepin-3-yl)-4-phenoxypicolinamide] | 26.7 | 4970 | 15.2 | – | – | – |
| CN1C(=O)[C@@H](NC(=O)c2n[nH]c(Cc3ccccc3)n2)COc2ccc(C#CCCOc3cccc4ncccc34)cc21 [Compound I-45, (S)-5-benzyl-N-(5-methyl-4-oxo-7-(4-(quinolin-5-yloxy)but-1-yn-1-yl)-2,3,4,5-tetrahydrobenzo[b][1,4]oxazepin-3-yl)-1H-1,2,4-triazole-3-carboxamide] | 82.5 | 0.3 | 1.4 | – | – | – |
| CN1C(=O)[C@@H](NC(=O)c2ncn(Cc3ccccc3)n2)COc2ccc(C#CC(C)(C)O)cc21 [Compound I-29, (S)-1-benzyl-N-(7-(3-hydroxy-3-methylbut-1-yn-1-yl)-5-methyl-4-oxo-2,3,4,5-tetrahydrobenzo[b][1,4]oxazepin-3-yl)-1H-1,2,4-triazole-3-carboxamide] | 12.4 | 8.8 | 2.3 | – | – | – |
| CN1C(=O)[C@@H](NC(=O)c2nnc(Cc3ccccc3)o2)COc2ccc(N3CC4(CCOCC4)C3)cc21 [Compound I-236, (S)-5-benzyl-N-(5-methyl-4-oxo-7-(7-oxa-2-azaspiro[3.5]nonan-2-yl)-2,3,4,5-tetrahydrobenzo[b][1,4]oxazepin-3-yl)-1,3,4-oxadiazole-2-carboxamide] | 55.9 | – | – | 258 | 6.6 | – |
| C=C(C)C#Cc1ccc2c(c1)NC(=O)[C@@H](NC(=O)c1n[nH]c(Cc3ccccc3)n1)CO2 [Compound I-93, (S)-5-benzyl-N-(7-(3-methylbut-3-en-1-yn-1-yl)-4-oxo-2,3,4,5-tetrahydrobenzo[b][1,4]oxazepin-3-yl)-1H-1,2,4-triazole-3-carboxamide] | 64.1 | 921 | 3240 | – | – | – |
| CN1C(=O)[C@@H](NC(=O)c2n[nH]c(Cc3cccc(F)c3)n2)COc2ccc(C#CC(C)(C)O)cc21 [Compound I-78, (S)-5-(3-fluorobenzyl)-N-(7-(3-hydroxy-3-methylbut-1-yn-1-yl)-5-methyl-4-oxo-2,3,4,5-tetrahydrobenzo[b][1,4]oxazepin-3-yl)-1H-1,2,4-triazole-3-carboxamide] | 33.4 | 0.9 | 2.5 | – | – | – |
| Cc1ccccc1Cn1cnc(C(=O)N[C@H]2COc3ccc(C#CC(C)(C)O)cc3N(C)C2=O)n1 [Compound I-82, (S)—N-(7-(3-hydroxy-3-methylbut-1-yn-1-yl)-5-methyl-4-oxo-2,3,4,5-tetrahydrobenzo[b][1,4]oxazepin-3-yl)-1-(2-methylbenzyl)-1H-1,2,4-triazole-3-carboxamide] | 25.5 | 0.3 | 1.9 | – | – | – |
| CN1C(=O)[C@@H](NC(=O)c2ncn(Cc3ccc(-c4ccccc4)cc3)n2)COc2ccc(C#CC(C)(C)O)cc21 [Compound I-83, (S)-1-([1,1′-biphenyl]-4-ylmethyl)-N-(7-(3-hydroxy-3-methylbut-1-yn-1-yl)-5-methyl-4-oxo-2,3,4,5-tetrahydrobenzo[b][1,4]oxazepin-3-yl)-1H-1,2,4-triazole-3-carboxamide] | 66.4 | 0.1 | 1 | – | – | – |
| CN1C(=O)[C@@H](NC(=O)c2cc(Oc3ccc(F)cc3)ccn2)COc2ccc(C#CC(C)(C)O)cc21 [Compound I-100, (S)-4-(4-fluorophenoxy)-N-(7-(3-hydroxy-3-methylbut-1-yn-1-yl)-5-methyl-4-oxo-2,3,4,5-tetrahydrobenzo[b][1,4]oxazepin-3-yl)picolinamide] | 39.2 | 263 | 8.3 | – | – | – |
| Cc1cccc(C)c1Oc1ccnc(C(=O)N[C@H]2COc3ccc(C#CC(C)(C)O)cc3N(C)C2=O)c1 [Compound I-124, (S)-4-(2,6-dimethylphenoxy)-N-(7-(3-hydroxy-3-methylbut-1-yn-1-yl)-5-methyl-4-oxo-2,3,4,5-tetrahydrobenzo[b][1,4]oxazepin-3-yl)picolinamide] | 93.5 | 2120 | 88.7 | – | – | – |
| CN1CCC2(CC1)CCN(c1ccc3c(c1)N(C)C(=O)[C@@H](NC(=O)c1cc(Oc4ccccc4)ccn1)CO3)CC2 [II-27, (S)—N-(5-Methyl-7-(9-methyl-3,9-diazaspiro[5.5]undecan-3-yl)-4-oxo-2,3,4,5-tetrahydrobenzo[b][1,4]oxazepin-3-yl)-4-phenoxypicolinamide] | 27.9 | – | 63.3 | – | – | 10400 |
| CN1C(=O)[C@@H](NC(=O)c2ncn(Cc3ccccc3)n2)COc2cc(C#CC(C)(C)O)ccc21 [Compound I-62, (S)-1-benzyl-N-(8-(3-hydroxy-3-methylbut-1-yn-1-yl)-5-methyl-4-oxo-2,3,4,5-tetrahydrobenzo[b][1,4]oxazepin-3-yl)-1H-1,2,4-triazole-3-carboxamide] | 35.5 | 0.7 | 2 | – | – | – |
| CN1C(=O)[C@@H](NC(=O)c2cc(OC3CCC3)ccn2)COc2ccc(C#CC3(O)COC3)cc21 [Compound I-153, (S)-4-cyclobutoxy-N-(7-((3-hydroxyoxetan-3-yl)ethynyl)-5-methyl-4-oxo-2,3,4,5-tetrahydrobenzo[b][1,4]oxazepin-3-yl)picolinamide] | 32.6 | 1240 | 16.1 | – | – | – |
| CN1C(=O)[C@@H](NC(=O)c2cc(-c3ccccc3)ccn2)COc2ccc(C#CC(C)(C)O)cc21 [II-20, (S)—N-(7-(3-hydroxy-3-methylbut-1-yn-1-yl)-5-methyl-4-oxo-2,3,4,5-tetrahydrobenzo[b][1,4]oxazepin-3-yl)-4-phenylpicolinamide] | 40.3 | – | – | 14600 | 31.6 | – |
| CN1C(=O)[C@@H](NC(=O)c2ncn(Cc3ccccc3F)n2)COc2ccc(CCC(=O)O)cc21 [Compound I-6, (S)-3-(3-(1-(2-fluorobenzyl)-1H-1,2,4-triazole-3-carboxamido)-5-methyl-4-oxo-2,3,4,5-tetrahydrobenzo[b][1,4]oxazepin-7-yl)propanoic acid] | 72.4 | 97500 | 43.8 | – | – | – |
| CN1C(=O)[C@@H](NC(=O)c2cc(Oc3ccccc3)ccn2)COc2ccc(C#CC(C)(C)CN3CCOCC3)cc21 [Compound I-140, (S)—N-(7-(3,3-dimethyl-4-morpholinobut-1-yn-1-yl)-5-methyl-4-oxo-2,3,4,5-tetrahydrobenzo[b][1,4]oxazepin-3-yl)-4-phenoxypicolinamide] | 124 | 109 | 4.6 | – | – | – |
| CN1C(=O)[C@@H](NC(=O)c2n[nH]c(Cc3ccccc3)n2)COc2ccc(CN3CCN(c4ccncc4)CC3)cc21 [Compound I-20, (S)-5-benzyl-N-(5-methyl-4-oxo-7-((4-(pyridin-4-yl)piperazin-1-yl)methyl)-2,3,4,5-tetrahydrobenzo[b][1,4]oxazepin-3-yl)-1H-1,2,4-triazole-3-carboxamide] | 153 | 53400 | 13.6 | – | – | – |
| CN1C(=O)[C@@H](NC(=O)c2cc(Oc3ccccc3)ccn2)COc2ccc(C#Cc3cn(C)cn3)cc21 [Compound I-203, (S)—N-(5-methyl-7-((1-methyl-1H-imidazol-4-yl)ethynyl)-4-oxo-2,3,4,5-tetrahydrobenzo[b][1,4]oxazepin-3-yl)-4-phenoxypicolinamide] | 23.4 | 4 | 0.4 | – | – | – |
| CN1C(=O)[C@@H](NC(=O)c2n[nH]c(Cc3ccccc3)n2)COc2ccc(CCC(C)(C)O)cc21 [Compound I-28, (S)-5-benzyl-N-(7-(3-hydroxy-3-methylbutyl)-5-methyl-4-oxo-2,3,4,5-tetrahydrobenzo[b][1,4]oxazepin-3-yl)-1H-1,2,4-triazole-3-carboxamide] | 37.5 | 674 | 5.4 | – | – | – |
| COC(C)(C)C#Cc1ccc2c(c1)N(C)C(=O)[C@@H](NC(=O)c1cc(Oc3ccccc3)ccn1)CO2 [II-32, (S)—N-(7-(3-methoxy-3-methylbut-1-yn-1-yl)-5-methyl-4-oxo-2,3,4,5-tetrahydrobenzo[b][1,4]oxazepin-3-yl)-4-phenoxypicolinamide] | 50.5 | – | – | 57.4 | 2.1 | – |
| CN1C(=O)[C@@H](NC(=O)c2cc(Oc3ccccc3)ccn2)COc2ccc(C#CC3CCCN3)cc21 (stereo partly drawn) [II-39, N-((3S)-5-methyl-4-oxo-7-(pyrrolidin-2-ylethynyl)-2,3,4,5-tetrahydrobenzo[b][1,4]oxazepin-3-yl)-4-phenoxypicolinamide] | 23 | 1350 | 1.8 | – | – | – |
| CN1C(=O)[C@@H](NC(=O)c2n[nH]c(Cc3ccccc3)n2)COc2ccc(C#CC(C)(C)C)cc21 [Compound I-49, (S)-5-benzyl-N-(7-(3,3-dimethylbut-1-yn-1-yl)-5-methyl-4-oxo-2,3,4,5-tetrahydrobenzo[b][1,4]oxazepin-3-yl)-1H-1,2,4-triazole-3-carboxamide] | 60.4 | 1.2 | 5 | – | – | – |
